Source: patent publication US6342503B1, “1N-alkyl-n-arylpyrimidinamines and derivatives thereof” (DuPont Pharmaceuticals Company, priority 1993, dated 2002)
Counter-ions that a name gives are not always drawn.

tested on: not given; assay: not given; settings: not given

| melting point [°C] | Compound |
| --- | --- |
| 58 to 60 | CCN(c1nc(C)cc(C)n1)c1ccc(CCO)cc1Br [compound 64, N-(2-Bromo-4-(2-hydroxyethyl)phenyl)-N-ethyl-4,6-dimethyl-2-pyrimidinamine] |
| 101 to 103 | CCN(c1nc(C)cc(OC[C@@H]2CCCN2C)n1)c1ccc(C(C)C)cc1SC (as salt: hydrochloride) [compound 177, N-(2-methylthio4-(1-methylethyl)phenyl)-N-ethyl-4(S)-(N-methyl-2′-pyrrolidinomethoxy)-6-methyl-2-pyrimidinamine] |
| 105 to 107 | CCN(c1nc(C)cc(C(=O)c2c[nH]c3ccccc23)n1)c1ccc(C(C)C)cc1Br (as salt: HCl) [compound 283] |
| 164 to 166 | Cc1cc(C)nc(N(C)c2ccccc2I)n1 (as salt: hydrochloride) [compound 53] |
| 102 to 104 | CCN(c1nc(C)cc(CN2CCN(c3ccccc3OC)CC2)n1)c1ccc(C(C)C)cc1Br (as salt: HCl) [compound 275] |
| 59 to 63 | CCN(c1nc(C)nc(N2CCOCC2)n1)c1ccc(C(C)C)cc1Br (as salt: hydrochloride) [compound 134, N-[2-bromo-4-(1-methylethyl)phenyl]-N-ethyl-4-methyl-6-(4-morpholinyl)-1,3,5-triazin-2-amine] |
| 128 to 130 | CCSc1cc(C(C)C)ccc1N(CC)c1nc(C)cc(C)n1 (as salt: hydrochloride) [compound 175, N-(2-ethylthio-4-(1-methylethyl)phenyl)-N-ethyl-4,6dimethyl-2-pyrimidinamine] |
| 89 to 90 | CCN(c1nc(C)nc(OCc2ccccc2)n1)c1ccc(C(C)C)cc1Br (as salt: hydrochloride) [compound 242, N-[2-bromo-4(1-methylethyl)phenyl]-N-ethyl-4-methyl-6-benzyloxy-1,3,5 triazin-2-amine] |
| 143 to 146 | CCN(c1nc(C)cc(OCCN(C)C)n1)c1ccc(C(C)C)cc1Br (as salt: hydrochloride) [compound 161] |
| 117 to 121 | CCN(c1nc(C)cc(NN)n1)c1ccc(C(C)C)cc1Br (as salt: hydrochloride) [compound 146] |
| 157 to 159 | Cc1cc(C)nc(N2CCCSc3cc(C(C)C)ccc32)n1 (as salt: hydrochloride) [compound 173] |
| 140 to 141 | CCc1ccc(N(CC)c2nc(C)cc(C)n2)c(SC)c1 (as salt: hydrochloride) [compound 182, N-(4-ethyl-2-methylthiophenyl)-N-ethyl-4,6-dimethyl-2-pyrimidinamine] |
| 104 to 106 | CCN(c1cc(OC)nc(OC)n1)c1ccc(C(C)C)cc1Br (as salt: hydrochloride) [compound 130] |
| 125 to 127 | CCN(c1nc(C)cc(CN2CCN(c3ncccn3)CC2)n1)c1ccc(C(C)C)cc1Br (as salt: HCl) [compound 281] |
| 117 to 119 | CCN(c1nc(C)cc(CN2CCN(c3ccccn3)CC2)n1)c1ccc(C(C)C)cc1Br (as salt: HCl) [compound 280] |
| 141 to 142 | CCN(c1nc(C)cc(C)n1)c1ccc(C(C)C)cc1SC (as salt: hydrochloride) [compound 170, N-(2-methylthio-4-(1-methylethyl)phenyl)-N-ethyl-4,6dimethyl-2-pyrimidinamine] |
| 144 to 146 | CCN(c1nc(C)cc(C)n1)c1ccc(C(C)C)cc1[S+](C)[O-] (centres unmarked) [compound 169, N-(2-methylsulfinyl-4-(1-methylethyl)phenyl)-N-ethyl-4,6-dimethyl-2-pyrimidinamine] |

The next lines start with the compound.

| Compound | melting point [°C] |
| --- | --- |
| CCN(c1nc(C)cc(C)n1)c1ccccc1Br [compound 5] | 94 to 95 |
| COc1ccc(N(C)c2nc(C)cc(C)n2)c(OC)c1 (as salt: hydrochloride) [compound 2] | 112 to 113 |
| C=CCN(c1nc(C)cc(C)n1)c1ccccc1Br (as salt: hydrochloride) [compound 3] | 127 to 129 |
| Cc1cc(C)nc(N(C)c2ccc(C(C)C)cc2Br)n1 (as salt: hydrochloride) [compound 4, N-(2-bromo-4-(1-methylethyl)phenyl)-N-methyl-4,6-dimethyl-2-pymidinamine] | 163 to 164 |
| CCCCc1ccc(N(CC)c2nc(C)cc(C)n2)c(Br)c1 (as salt: hydrochloride) [compound 19] | 124 to 126 |
| CCN(c1nccc(C)n1)c1ccc(C(C)C)cc1Br (as salt: hydrochloride) [compound 49, N-(2-Bromo-4-(1-methylethyl)phenyl)-N-ethyl-4-methyl-2-pymidinamine] | 145 to 147 |
| CCCCc1ccc(N(CC)c2nc(CC)cc(CC)n2)c(Br)c1 (as salt: hydrochloride) [compound 24] | 116 to 118 |
| Cc1cc(C)nc(N(CC2CC2)c2ccc(C(C)C)cc2Br)n1 (as salt: hydrochloride) [compound 33] | 146 to 148 |
| Cc1cc(C)nc(N(C)c2ccc(I)cc2)n1 (as salt: hydrochloride) [compound 52] | 175 to 177 |
| C=CCN(c1nc(C)cc(N2CCOCC2)n1)c1ccc(C(C)C)cc1Br (as salt: hydrochloride) [compound 17] | 208 to 211 |
| Cc1cc(Cl)c2c(C#N)cn(-c3ccc(C(C)C)cc3Br)c2n1 [Synth. Ex. 74, 1-(2-Bromo-4-isopropylphenyl)-4-chloro-3-cyano-6-methyl-7-azaindole] | 123.3 |
| CCN(c1nc(C)cc(C)n1)c1ccc(C(C)C)cc1Br (as salt: hydrochloride) [compound 21, N-(2-bromo-4-(1-methylethyl)phenyl)-N-ethyl-4,6dimethyl-2-pyrimidinamine] | 151 to 153 |
| Cc1cc(C)nc(N(C)c2ccc(C(C)(C)C)cc2Br)n1 (as salt: hydrochloride) [compound 11] | 193 to 195 |
| CCc1ccc(N(C)c2nc(C)cc(C)n2)c(Br)c1 (as salt: hydrochloride) [compound 9, N-(2-bromo-4-ethylphenyl)-N-methyl-4,6-dimethyl-2-pypimidinamine] | 126 to 127 |
| Cc1ccc(N(C)c2nc(C)cc(C)n2)c(Br)c1 (as salt: hydrochloride) [compound 1, N-(2-bromo-4-methylphenyl)-N-methyl-4,6-dimethyl-2-pymidinamine] | 120 to 121 |

molecular target: T1, CRF receptor (Rattus norvegicus, UniProt P35353); assay: In vitro CRF receptor binding assay (competition with [125I] ovine CRF, rat cortex membranes); settings: competition with [125I] ovine CRF, 2 h at 22° C.; Ki classes; read-out: Inhibition Ki
T1 construct: 100 μl of membrane suspension as prepared above to give a total reaction volume of 300 μl; from tissue; host or cells: rat cerebral cortex membrane homogenate
T1 sequence (P35353 24-415): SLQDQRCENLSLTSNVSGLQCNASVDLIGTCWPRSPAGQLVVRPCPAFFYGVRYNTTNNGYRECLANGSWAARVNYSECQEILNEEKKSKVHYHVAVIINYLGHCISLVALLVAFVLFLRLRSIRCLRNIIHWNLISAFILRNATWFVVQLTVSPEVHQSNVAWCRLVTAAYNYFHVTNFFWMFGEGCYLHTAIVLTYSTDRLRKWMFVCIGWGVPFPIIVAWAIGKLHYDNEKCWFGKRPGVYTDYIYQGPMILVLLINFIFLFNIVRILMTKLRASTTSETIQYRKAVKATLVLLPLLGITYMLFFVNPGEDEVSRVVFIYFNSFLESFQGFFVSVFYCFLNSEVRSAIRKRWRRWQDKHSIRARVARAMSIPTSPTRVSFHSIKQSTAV
Protocol: In vitro Receptor Binding Assay
Tissue Preparation: Male Sprague Dawley rats (180-200 g) were sacrificed by decapitation and the cortex was dissected on ice, frozen whole in liquid nitrogen and stored at −70° C. until use. On the day of assay, frozen tissue was weighed and homogenized in 20 volumes of ice cold buffer containing 50 mM Tris, 10 mM MgCl2, 2 mM EGTA, pH 7.0 at 22° C. using a Polytron (Brinkmann Instruments, Westbury, N.Y.; setting 6) for 20 s. The homogenate was centrifuged at 48,000× g for 10 min at 4° C. The supernatant was discarded, and the pellet was re-homogenized in the same volume of buffer and centrifuged at 48,000× g for 10 min at 4° C. The resulting pellet was resuspended in the above buffer to a final concentration of 20-40 mg original wet weight/mL and used in the assays described below.
CRF Receptor Binding: Receptor binding assays were carried out essentially as described by E. B. De Souza, J. Neurosci. […]
All assays were carried out at equilibrium for 2 h at 22° C. as described by E. B. De Souza, J. Neurosci. […] The reaction was terminated by centrifugation of the tubes in a Beckman microfuge for 5 min at 12,000× g. Aliquots of the supernatant were collected to determine the “free” radioligand concentration. The remaining supernatant was aspirated and the pellets washed gently with ice-cold PBS plus 0.01% Triton X-100; centrifuged again and monitored for bound radioactivity as described above. […] This program has the distinct advantage of fitting the raw experimental data on an untransformed coordinate system where errors are most likely to be normally distributed and uncorrelated with the independent variable. […] The parameters for the affinity constants (KD) and receptor densities (Bmax) are also provided along with statistics on the general “fit” of the estimated parameters to the raw data.
Competition Curve Analysis
The resulting pellets were surface washed twice by centrifugation with 1 mL of ice-cold phosphate buffered saline and 0.01% Triton X-100; the supernatants discarded and the pellets monitored for radioactivity at approximately 80% efficiency. The level of non-specific binding was defined in the presence of […] unlabeled rat/humanCRF (r/hCRF). Data from competition curves were analyzed by the program LIGAND. […] Routinely, the data were analyzed using a one- and two-site model comparing the “goodness of fit” between the models in order to accurately determine the Ki. Statistical analyses provided by LIGAND allowed the determination of whether a single-site or multiple-site model should be used.
In Table 17; the Ki values were determined using the assay conditions described above.

| Ki [µM] | Compound |
| --- | --- |
| 2 to 10 | CCN(c1nc(C)cc(C)n1)c1ccc(C(C)C)cc1OC [compound 65, N-ethyl-N-(2-methoxy4-(1-methylethyl)phenyl)4,6-dimethyl-2-pyimidinamine] |
| < 0.5 | CCSc1cc(C(C)=NOC)ccc1N(CC)c1nc(C)cc(C)n1 [compound 176, N-(2-ethylthio-4-methoxyiminoethylphenyl)-N-ethyl-4,6-dimethyl-2-pyrimidinamine] |
| < 0.5 | N-ethyl-N-(2-bromo-4-(2-methoxyethyl)phenyl)4-morpholino-6-methyl-2-pyrimidinamine [compound 29] |

same assay, conditions: read-out: Inhibition Ki

| Ki [µM] | Compound |
| --- | --- |
| 2 to 10 | CCN(c1nc(C)cc(C)n1)c1ccc(CCO)cc1Br [compound 64, N-(2-Bromo-4-(2-hydroxyethyl)phenyl)-N-ethyl-4,6-dimethyl-2-pyrimidinamine] |
| 0.501 to 2 | CCN(c1nc(C)cc(C)n1)c1ccccc1Br [compound 5] |
| 0.501 to 2 | CCN(c1nc(C)cc(C)n1)c1ccc(C2CCCCC2)cc1Br [compound 22] |
